What follows are compounds tested on NL-RLuc virus (assay: Inhibition of HIV replication (NL-RLuc virus, luciferase readout in MT-2 cells)). Conditions: Human immunodeficiency virus 1, MT2, 120 h, MT-2 cells infected with NL-RLuc virus, 5 days of incubation, 10% FBS, at least 2 experiments.
Type: cell-based
Source text: Inhibition of HIV Replication:
A recombinant NL-RLuc proviral clone was constructed in which a section of the nef gene form NL4-3 was replaced with the Renilla Luciferase gene. This virus is fully infectious and can undergo multiple cycles of replication in cell culture. In addition, the luciferous reporter provides a simple and easy method for quantitating the extent of virus growth and consequently, the antiviral activity of test compounds. The plasmid pNLRLuc contains the proviral NL-Rluc DNA cloned into pUC18 at the PvuII site. The NL-RLuc virus was prepared by transfection of 293T cells with the plasmid pNLRLuc. Transfections were performed using the LipofectAMINE PLUS kit form Invitrogen (Carlsbad, Calif.) according to the manufacturer and the virus generated was titered in MT-2 cells. For susceptibility analyses, the titrated virus was used to infect MT-2 cells in the presence of compound, and after 5 days of incubation, cells were processed and quantitated for virus growth by the amount of expressed luciferase. Assay media was RPMI 1640 supplemented with 10% heat inactivated fetal bovine serum (FBS), 100 units/ml penicillin G/100 units/ml streptomycin, 10 mM HEPES buffer pH 7.55 and 2 mM L-glutamine. The results form at least 2 experiments were used to calculate the EC50 values. Luciferase was quantitated using the Dual Luciferase kit form Promega (Madison, Wis.). Susceptibility of viruses to compounds was determined by incubation in the presence of serial dilutions of the compound. The 50% effective concentration (EC50) was calculated by using the exponential form of the median effect equation where (Fa)=1/[1+(ED50/drug conc.)^m](Johnson V A, Byington R T. Infectivity Assay. In Techniques in HIV Research. ed. Aldovini A, Walker B D. 71-76. New York: Stockton Press. 1990).
For `CCC(C)(C)O[C@H](C(=O)O)c1c(C)ncc(-c2ccc(OCCc3ccc(F)cc3)cc2)c1N1CCC(C)(C)CC1` [Example 18, (2S)-2-[4-(4,4-Dimethylpiperidin-1-yl)-5-{4-[2-(4-fluorophenyl)ethoxy]phenyl}-2-methylpyridin-3-yl]-2-[(2-methylbutan-2-yl)oxy]acetic acid], the EC50 was 4 nM. Work on `Cc1ncc(-c2ccc(OCc3ncnc4c3oc3ccccc34)cc2)c(N2CCC(C)(C)CC2)c1[C@H](OC(C)(C)C)C(=O)O` [Example 19, (2S)-2-(tert-Butoxy)-2-[4-(4,4-dimethylpiperidin-1-yl)-2-methyl-5-[4-({8-oxa-3,5-diazatricyclo[7.4.0.0^2,7]trideca-1(9), 2(7), 3,5,10,12-hexaen-6-yl}methoxy)phenyl]pyridin-3-yl]acetic acid] yielded an EC50 of 4 nM. Compound `Cc1ncc(-c2ccc(CN(C)c3ncnc4c3oc3ccccc34)cc2)c(N2CCC(C)(C)CC2)c1[C@H](OC(C)(C)C)C(=O)O` [Example 20, (2S)-2-(tert-Butoxy)-2-[4-(4,4-dimethylpiperidin-1-yl)-2-methyl-5-(4-{[methyl({8-oxa-3,5-diazatricyclo[7.4.0.0^2,7]trideca-1(9),2(7),3,5,10,12-hexaen-6-yl})amino]methyl}phenyl)pyridin-3-yl]acetic acid] has an EC50 of 2 nM. `Cc1ncc(-c2ccc(CNc3ncnc4c3oc3ccccc34)cc2)c(N2CCC(C)(C)CC2)c1[C@H](OC(C)(C)C)C(=O)O` [Example 21, (2S)-2-(tert-Butoxy)-2-[4-(4,4-dimethylpiperidin-1-yl)-2-methyl-5-{4-[({8-oxa-3,5-diazatricyclo[7.4.0.0^2,7]trideca-1(9), 2(7), 3,5,10, 12-hexaen-6-yl}amino)methyl]phenyl}pyridin-3-yl]acetic acid] was tested, and the EC50 was 2 nM. In the case of `Cc1nc(C#N)c(-c2ccc(CN(C)c3ncnc4c3oc3ccccc34)cc2)c(N2CCC(C)(C)CC2)c1[C@H](OC(C)(C)C)C(=O)O` [Example 22, (2S)-2-(tert-Butoxy)-2-[6-cyano-4-(4,4-dimethylpiperidin-1-yl)-2-methyl-5-(4-{[methyl({8-oxa-3,5-diazatricyclo[7.4.0.0^2,7]trideca-1 (9), 2(7), 3,5,10, 12-hexaen-6-yl})amino]methyl}phenyl)pyridin-3-yl]acetic acid], the EC50 is reported as 3 nM. With `Cc1nc(CNC(=O)OC(C)(C)C)c(-c2ccc(OCCc3ccc(F)cc3)cc2)c(N2CCC(C)(C)CC2)c1[C@H](OC(C)(C)C)C(=O)O` [Example 23, (S)-2-(tert-Butoxy)-2-(6-(((tert-butoxycarbonyl)amino)methyl)-4-(4,4-dimethylpiperidin-1-yl)-5-(4-(4-fluorophenethoxy)phenyl)-2-methylpyridin-3-yl)acetic acid] the EC50 was 2 nM. Compound `Cc1nc(NC2CCOCC2)c(-c2ccc(OCCc3ccc(F)cc3)cc2)c(N2CCC(C)(C)CC2)c1[C@H](OC(C)(C)C)C(=O)O` [Example 24, (S)-2-(tert-Butoxy)-2-(4-(4,4-dimethylpiperidin-1-yl)-5-(4-(4-fluorophenethoxy)phenyl)-2-methyl-6-((tetrahydro-2H-pyran-4-yl)amino)pyridin-3-yl)acetic acid] has an EC50 of 2 nM. `Cc1nc(NC2CCN(C)CC2)c(-c2ccc(OCCc3ccc(F)cc3)cc2)c(N2CCC(C)(C)CC2)c1[C@H](OC(C)(C)C)C(=O)O` [Example 25, (S)-2-(tert-Butoxy)-2-(4-(4,4-dimethylpiperidin-1-yl)-5-(4-(4-fluorophenethoxy)phenyl)-2-methyl-6-((1-methylpiperidin-4-yl)amino)pyridin-3-yl)acetic acid] was tested, and the EC50 was 0.8 nM. Compound `Cc1nc(NCCN2CCOCC2)c(-c2ccc(OCCc3ccc(F)cc3)cc2)c(N2CCC(C)(C)CC2)c1[C@H](OC(C)(C)C)C(=O)O` [Example 26, (S)-2-(tert-Butoxy)-2-(4-(4,4-dimethylpiperidin-1-yl)-5-(4-(4-fluorophenethoxy)phenyl)-2-methyl-6-((2-morpholinoethyl)amino)pyridin-3-yl)acetic acid] has an EC50 of 0.5 nM.

From patent US20200055839A1 (priority 2017, published 2020)
